Experimental data from US6444662B1 (Willmar Schwabe GmbH & Co., priority 1998, dated 2002).

Legend:
[1] = molecular target: recombinant PKC-γ (Homo sapiens, UniProt P05129); assay: Activation of protein kinase PKC-γ (enzyme test); format: biochemical; conditions: control with 100 nM TPA set to 100%
Experimental: PKCγ activators are potentially suitable for activating cc-secretase. These activators are found in enzyme tests in which the recombinantly produced PKC-γ is suboptimally active. The test media were:
In the table, the control with 100 nM phorbol-12-myristate-13-acetate (TPA; stimulator of PKC-γ) was set to 100%.

[2] = system: α-secretase; assay: Activation of α-secretase in secα1-transfected cells (Seap release); format: cell-based, human; conditions: 60 min incubation, mean of triplicates
From the text: As the APP cassette in both constructs begins with amino-acid 7 of the β-amyloid sequence, the recognition sequence for β-secretase in the sec-fusion proteins is absent. Cleavage by γ-secretase has not been described for human APLP-2, with the result that the specificity of the fusion proteins for α-secretase only is achieved by substitution of the trans-membrane domain of APLP-2 for APP. The expression plasmid secα1 was stably transfected into human neuronal cells SY5Y. Activation of α-secretase in these secα1-transfected cells is manifested in an increased release of Seap into the cell medium. The quantity of Seap is determined, and serves as a measure of the α-secretase activity.
Test conditions: 80 000 FL-2a cells/well. V=100 μl. Incubation time: 60 min.
Concentration of the substances: 10 μg/ml.
Mean values±s.d. of triplicates.
The activation of α-secretase by the phorbol ester TPA (100 ng/ml) was measured as the positive control.

[3] = Stability of hyperforin salts on storage at room temperature (content by HPLC); format: physicochemical; conditions: for Change in the hyperforin content, difference after 1 week / Change in the hyperforin content, difference after 4 weeks / Change in the hyperforin content, difference after 12 weeks: room temperature, brown-glass bottles, without protective gas; for Change in the hyperforin content, difference after 1 week / Change in the hyperforin content, difference after 4 weeks / Change in the hyperforin content, difference after 12 weeks / Initial value, hyperforin content (% of the stoichiometric content): HPLC; for Initial value, hyperforin content (% of the stoichiometric content): hyperforin (examples 1 to 20) or hyperforin+adhyperforin (examples 21 to 31)
Experimental: General: Melting points were measured with Elektrothermal® or B-545 (Büchi) apparatus; IR spectra were recorded with an IFS 28 (Bruker) IR-spectrometer on KBr blanks, NMR spectra with an AC 200 or Avance 200 (Bruker) in D4-methanol (200 MHz for ^1H and 50 MHz for ^13C; δ-values in ppm). HPLC determinations were performed using a Dynamax PDA-1 from Rainin, Voburn, Mass., USA. HPLC conditions (isocratic): adsorbant: Eurospher 100-C18, 10 μm. Eluant: Acetonitrile/water/phosphoric acid=85/15/0.3 (vol./vol.). Detection: 273 nm. […] Assay: Content stated in area-% with reference to the reference standard. […] Operating conditions: under red light or in darkened apparatus under protective gas (nitrogen or argon). […] They are calculated as hydrates. Abbreviations: MTBE=Methyl tert.-butyl ether. “98H/I”=n-heptane/isopropanol 98/2 (vol/vol). Mp.=melting point. anh.=anhydrous. Th=theoretical. sv=very strong.
1 This salt is used as the reference standard.

CC(C)=CCC[C@]1(C)[C@@H](CC=C(C)C)C[C@@]2(CC=C(C)C)C(=O)[C@]1(C(=O)C(C)C)C(=O)C(CC=C(C)C)=C2O [Hyperforin, hyperforin, reference compound]
Increase in the activity of PKC-γ ([1]; substance dose 1 μg/ml): 6% | Increase in the activity of PKC-γ ([1]; substance dose 3 μg/ml): 51% | Increase in the activity of PKC-γ ([1]; substance dose 10 μg/ml): 45% | Activity of α-secretase (secreted alkaline phosphatase, Seap) ([2]; 10 μg/ml, 80 000 cells/well): 441 RLU

CC(C)=CCC[C@]1(C)[C@@H](CC=C(C)C)C[C@@]2(CC=C(C)C)C(=O)[C@]1(C(=O)C(C)C)C(=O)C(CC=C(C)C)=C2O.[Na] [Example 1, Hyperforin Sodium Salt]
Increase in the activity of PKC-γ ([1]; substance dose 1 μg/ml): 9% | Increase in the activity of PKC-γ ([1]; substance dose 3 μg/ml): 30% | Increase in the activity of PKC-γ ([1]; substance dose 10 μg/ml): 56%

CC(C)=CCC[C@]1(C)C(CC=C(C)C)C[C@@]2(CC=C(C)C)C(=O)[C@]1(C(=O)C(C)C)C(=O)C(CC=C(C)C)=C2O.COc1cc(CN)cc(OC)c1OC (some centres unmarked) [Example 3, 3,4,5-Trimethoxybenzylamine Salt of Hyperforin]
Change in the hyperforin content, difference after 1 week [3]: +1.1% | Change in the hyperforin content, difference after 4 weeks [3]: −1.1% | Change in the hyperforin content, difference after 12 weeks [3]: −5.0% | Initial value, hyperforin content (% of the stoichiometric content) ([3]; storage time 0): 87.2%

CC(C)=CCC[C@]1(C)C(CC=C(C)C)C[C@@]2(CC=C(C)C)C(=O)[C@]1(C(=O)C(C)C)C(=O)C(CC=C(C)C)=C2O.Nc1ccncc1 (some centres unmarked) [Example 16]
Change in the hyperforin content, difference after 1 week [3]: +1.4% | Change in the hyperforin content, difference after 4 weeks [3]: +0.1% | Initial value, hyperforin content (% of the stoichiometric content) ([3]; storage time 0): 94.6%

CC(C)=CCCC1(C)C(CC=C(C)C)CC2(CC=C(C)C)C(=O)C1(C(=O)C(C)C)C(=O)C(CC=C(C)C)=C2O.NCCCNC1CCCCC1 (centres unmarked) [Example 15]
Change in the hyperforin content, difference after 1 week [3]: −2.0% | Change in the hyperforin content, difference after 4 weeks [3]: −2.0% | Change in the hyperforin content, difference after 12 weeks [3]: −9.9% | Initial value, hyperforin content (% of the stoichiometric content) ([3]; storage time 0): 90.8%

CCCCCCCCCCCCCC(=O)O[C@@H]1[C@@H](C)[C@@]2(O)[C@@H](C=C(CO)C[C@]3(O)C(=O)C(C)=C[C@@H]23)[C@@H]2C(C)(C)[C@]12OC(C)=O [TPA, phorbol-12-myristate-13-acetate]
Activity of α-secretase (secreted alkaline phosphatase, Seap) ([2]; positive control, 100 ng/ml): 386 RLU

C1CCC(NC2CCCCC2)CC1.CC(C)=CCC[C@]1(C)C(CC=C(C)C)C[C@@]2(CC=C(C)C)C(=O)[C@]1(C(=O)C(C)C)C(=O)C(CC=C(C)C)=C2O (some centres unmarked) [Example 2, N,N-Dicyclohexylamine Salt of Hyperforin]
Initial value, hyperforin content (titr.) ([3]; storage time 0, perchloric-acid titration): 100%

C1CCNC1.CC(C)=CCC[C@]1(C)C(CC=C(C)C)C[C@@]2(CC=C(C)C)C(=O)[C@]1(C(=O)C(C)C)C(=O)C(CC=C(C)C)=C2O (some centres unmarked) [Example 5, Pyrrolidine Salt of Hyperforin]
Increase in the activity of PKC-γ ([1]; substance dose 1 μg/ml): 3% | Increase in the activity of PKC-γ ([1]; substance dose 3 μg/ml): 20% | Increase in the activity of PKC-γ ([1]; substance dose 10 μg/ml): 48% | Change in the hyperforin content, difference after 1 week [3]: −0.5% | Change in the hyperforin content, difference after 12 weeks [3]: −3.2% | Initial value, hyperforin content (% of the stoichiometric content) ([3]; storage time 0): 93.7%
